Reference: US4366143A, “Assay for the free portion of substances in biological fluids” (Amersham International Public Limited Company, priority 1979, dated 1982)
Read-outs that look alike come from different tables or passages of the source.

What was measured:
transcortin = target: T1, transcortin (Homo sapiens, UniProt P08185); assay: Binding of cortisol tracers to serum proteins / transcortin with and without ANS (Example 4); details: for % Tracer Bound to Serum Proteins (Corrected for Non-Specific Binding): charcoal extracted human serum
T1 construct: charcoal extracted human serum; from tissue; host or cells: human serum, charcoal extracted (unpurified)
T1 sequence (P08185 23-405): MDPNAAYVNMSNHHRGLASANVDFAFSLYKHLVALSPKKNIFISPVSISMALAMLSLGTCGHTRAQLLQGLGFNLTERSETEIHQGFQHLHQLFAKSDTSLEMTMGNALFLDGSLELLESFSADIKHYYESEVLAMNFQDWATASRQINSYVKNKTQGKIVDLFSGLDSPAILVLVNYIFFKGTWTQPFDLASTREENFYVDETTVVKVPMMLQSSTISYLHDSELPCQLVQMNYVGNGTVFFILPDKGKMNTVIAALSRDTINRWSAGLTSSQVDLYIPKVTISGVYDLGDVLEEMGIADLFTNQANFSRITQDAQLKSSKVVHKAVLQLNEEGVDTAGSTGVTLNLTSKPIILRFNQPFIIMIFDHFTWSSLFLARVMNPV
Experimental: The protocol was as follows:
B. 200 μl buffer (containing either 0 or 600 μg of 8-anilinonaphthalene sulphonic acid (ANS) as a cortisol binding site blocking agent).
A mixture of A and B was incubated at 37° C. for one hour. […] The reaction tubes were mixed for one hour at room temperature. A 0.5 ml aliquot of the supernatant was then removed for counting.

[1] = test system: rabbit anti-cortisol serum
Experimental: This experiment is designed to test the binding of cortisol-3-carboxymethyloxime-histamine-I^125 tracer with an antiserum raised to a cortisol-3-carboxymethyloxime-thyroglobulin conjugate. The protocol was as follows:
50 μl of serum was mixed with 200 μl of cortisol-3-carboxymethyloxime-histamine-I^125 tracer solution. The specific activity of the tracer was 3.9 curies per milligram. The tracer concentration was 125 picomolar. The buffer contained 28 g/l Na2 HPO4.12H2 O, 4.6 g/l citric acid monohydrate, 9 g/l NaCl, 3 g/l E.D.T.A. disodium salt, 0.5 g/l NaN3, 1 g/l gelatin and 1 g/l of 8-anilinonaphthalene sulphonic acid (the latter to inhibit binding of cortisol to transcortin and albumin).
To the mixture of tracer and serum, 200 μl of a suspension of polystyrene latex particles (0.9 micron diameter) coated with the rabbit anti-cortisol serum was added. The buffer was 28 g/l Na2 HPO4.12H2 O, 4.6 g/l citric acid monohydrate, 0.5 g/l NaN3 and 2 g/l bovine serum albumin. The effective antiserum dilution in the assay tube was 1/20000.
The resulting mixture was vortexed and incubated at 37° C. for 1 hour. The antibody coated particles were centrifuged down at 1500 g for 15 minutes and the liquid phase decanted off.

[2] = test system: antiserum raised to a 21-hemisuccinate-cortisol conjugate to bovine serum albumin; details: heterologous tracer-immunogen pair
serum albumin = details: U.S. Pat. No. 4,069,305; cited from earlier work

Molecule	binding to transcortin (in words) (transcortin)	% Tracer Bound to Serum Proteins (Corrected for Non-Specific Binding) (transcortin; ANS 0 μg/tube)	% Tracer Bound to Serum Proteins (Corrected for Non-Specific Binding) (transcortin; ANS 600 μg/tube)	displacement from transcortin by ANS blocking agent (in words) (transcortin; high concentrations of ANS)	% Radioactivity in the antibody Coated Particles ([1]; Total Plasma Cortisol 0 μg/dl)	% Radioactivity in the antibody Coated Particles ([1]; Total Plasma Cortisol 1 μg/dl)	% Radioactivity in the antibody Coated Particles ([1]; Total Plasma Cortisol 4 μg/dl)	% Radioactivity in the antibody Coated Particles ([1]; Total Plasma Cortisol 10 μg/dl)	% Radioactivity in the antibody Coated Particles ([1]; Total Plasma Cortisol 28 μg/dl)	% Radioactivity in the antibody Coated Particles ([1]; Total Plasma Cortisol 60 μg/dl)	affinity of antiserum for tracer (in words) [2]	binding to serum albumin relative to cortisol (in words) (serum albumin)
cortisol-3-carboxymethyloxime-histamine I^125	binds very weakly to transcortin	7%	5%	not significantly displaced by the ANS blocking agent	65.4%	56.6%	43.0%	30.6%	19.2%	12.2%	sufficient affinity	–
C[C@]12CCC(=NOCC(=O)NCCc3c[nH]cn3)C=C1CC[C@@H]1[C@@H]2[C@@H](O)C[C@@]2(C)[C@H]1CC[C@]2(O)C(=O)CO	–	–	–	–	–	–	–	–	–	–	–	binds much less strongly to serum albumin than cortisol itself
